From patent US20120214743A1, “ITCH SUPPRESSANT” (University of Occupational and Environmental Health, Japan, priority 2009, published 2012)
Ends that are not written are not given here. * marks the point of attachment. SO3H = O=S(=O)(O)*

Columns and labels:
FSMCs = assay: Confocal imaging of intracellular Ca in FSMCs; assay type: cell-based, mouse
Procedure: Confocal imaging of cells loaded with fluorescent dyes was undertaken using a Zeiss LSM5 pascal (Carl Zeiss, Jena, Germany). Fluo-4-AM (Invitrogen) (1 μM) was loaded at 37° C. for 20 min and washed twice and sit at least for 40 min. Mast cells, were stained for CD117 (c-kit) with Alexa Fluor 700-conjugated anti-mouse CD117 antibody. The LSM5 multi-track configuration was used for simultaneous measurement of intracellular Ca concentration (Ca) (excitation, 488 nm; emission, long-pass 505 nm filter) and the expression of CD117 (excitation, 633 nm; emission, long-pass 650 nm filter). Images were recorded at room temperature with 512×512 pixels. The application of stimulation, such SP and CCK, were applied directly in the bath as a small drop ([…]). Image data were analyzed off-line using the Zeiss LSM510 analyzing software (LSM Image Examiner).
Thus, it is likely that CCK8S affects signaling in mast cells.

NHEKs = assay: IL-8 production in NHEK (cytometric bead array); assay type: cell-based, human; conditions: CCK8S 10^−9, 10^−8 or 10^−7 M, Ca 0.15 mM or 0.6 mM, FIG. 5A
Procedure: IL^-8 concentration in the culture supernatants was quantified with Cytometric Bead Array (CBA) Flex Set System purchased from BD using FACSCanto (BD).
NHEKs were stimulated with various concentrations of CCK8S (CCK8S concentration of 10^−9, 10^−8, or 10^−7 M, Ca concentration of 0.15 mM or 0.6 mM).

[1] = test system: FSMCs (mouse fetal skin derived mast cells); assay: β-Hexosaminidase assay, compound 48/80-induced degranulation of FSMCs; assay type: cell-based; conditions: CCK8S at 10^−8 or 10^−7 M, 15 min at 37° C., FIG. 5B
Procedure: FSMCs were washed with Tyrode's buffer (Sigma), and resuspended at 2×10^4 cells per well into a 96 well plate. FSMCs were treated with compound 48/80 with or without CCK8S for 15 min at 37° C. The plate was centrifuged for 5 min and supernatant was placed into another 96 well and cell pellet were resuspended with 0.5% Triton X-100 (Sigma) in Tyrode's buffer. Supernatant and cell lysate (50 μl) was incubated with 100 μl 4 mM p-nitrophenyl-N-acetyl-β-D-galactosaminide (Sigma), dissolved in citrate buffer, pH4.5, at 37 ° C. for 90 min. The reaction is stopped with 200 μl 0.2M Glycine (MP Biomedicals, Solon, Ohio), pH10.7. The plate was read at 405 nm using a reference filter 595 nm by Microplate Reader (Bio-Rad, Hercules, Calif.). β-hexosaminidase release was determined as the ratio between activity in the supernatant and cell lysate multiplied by 100.
The addition of compound 48/80 induces degranulation in FSMCs.

ICR mice [2] = assay: Contact hypersensitivity (CHS) mouse model to DNFB, ear swelling; assay type: in vivo; conditions: 0.5 nmol/ear painted immediately before DNFB challenge, measured 24 hours after challenge; FIG. 5C
Procedure: For induction of CHS to 2,4-dinitrofluorobenzene (DNFB; Nakalai Tesque, Kyoto, Japan), ICR mice were sensitized on two consecutive days, days 0 and 1, on the clipped abdomen with 25 μL of 0.5% of DNFB diluted in acetone/olive oil (3:1). Five days later, animals were challenged on both sides of each ear by painting a nonirritant concentration of 0.2% DNFB. Before challenge, CCK8S (0.5 nmol/ear) diluted in acetone/olive oil (3:1) or only acetone/olive oil (control) was painted on each ear. The ear thickness of mice was measured using dial thickness gauge before and 24 hours after challenge. Ear swelling was calculated from the difference in ear thickness between before and after challenge.
In CHS model, mice were sensitized with DNFB (2,4-dinitrofluorobenzene), a haptene, and the contact hypersensitivity raised by DNFB at day 5 lead to ear swelling.

ICR mice [3] = assay: SP-induced scratch behavior in ICR mice; assay type: in vivo, mouse
Procedure: Since it is considered that external administration of CCK affects keratinocytes, at first, CCK2R agonist was administered transdermally (applying the solution prepared using acetone-olive (3:1)) to itch-related behavior model (ICR mice administered intradermally with SP (100 nmol)).
The hair was clipped over the rostral part of the murine back one or two days prior to experiment. Before behavioral recording, each mouse (4 animals per observation) was put into an acrylic cage (18×23×11 cm) for at least 1 hr for acclamation. An intradermal injection of SP (100 nmol in normal saline per site) induces scratching of the skin around the injected site by the hind paws in mice. CCKs were topically applied in the two ways, percutaenous application and intradermal injection. For percutaneous application, the shaved back skin was stripped with Scotch tape (3M) 6 times the day before the experiment. The mice were painted on the clipped back with 20 μL CCK (0.5 nmol/site) in acetone/olive (3:1) 3-4 minutes before SP injection (100 nmol/site). […] Immediately after treatment, the animals were put back into the same cage and their behavior was videotaped using a digital video camera for 40 minutes. The frequency of scratch toward the injected site by hind paws was counted for the first 20 minutes with the video.

Asp-Tyr(SO3H)-Met-Gly-Trp-Met-Asp-Phe-NH2 (DY(SO3H)MGWMDF-NH2) [CCK8S, natural type cholecystokinin, tyrosine at seventh position from C-terminal sulfated]
percentage of responding FSMCs (FSMCs; Ca response after CCK8S, FIG. 6 bottom): 45% | change of intracellular Ca concentration (FSMCs; FSMCs, Fluo-4-AM, FIG. 6 top): transient increase | time to transient increase in Ca after the administration (FSMCs; FSMCs, FIG. 6 top): ≤ 1 min | production of IL-8 (NHEKs): decreased in accordance with the concentration | degranulation (β-hexosaminidase release) induced by compound 48/80 [1]: suppression of degranulation was observed | ear swelling (ICR mice [2]): suppressed | scratch behavior (frequency of scratch, first 20 minutes) (ICR mice [3]; subcutaneous administration, 0.5 nmol/site in saline simultaneously with SP 100 nmol, FIG. 3B): depressed | scratch behavior (frequency of scratch, first 20 minutes) (ICR mice [3]; transdermal, 0.5 nmol/site in acetone/olive (3:1), tape-stripped skin, 3-4 minutes before SP 100 nmol/site intradermal, FIG. 3): significant reduction
